Read-outs that look alike come from different tables or passages of the source.
What was measured:
[1] = biological target: EGFR (L858R/T790M/C797S) TK (Homo sapiens, UniProt P00533, C797S/L858R/T790M); assay: ADP-Glo kinase assay, EGFR tyrosine kinase inhibition; format: biochemical
Protocol: The inhibitory activity of each candidate compound towards EGFR triple mutations was performed using the luminescent ADP-Glo™ kinase assay (Promega Corporation, Madison, WI, USA) as previously described. […] Subsequently, 10 μL of kinase detection reagent was added and incubated at room temperature for 30 min to convert ADP into ATP. The generated luminescence by ATP in a luciferase reaction was then measured using a microplate reader (Infinite M200 microplate reader, Tecan, Männedorf, Switzerland), which corresponds to kinase activity. All assays were performed in triplicate and the obtained data were represented as the relative inhibition (%) of inhibitors compared to the control with no inhibitor as shown in Equation (1); (1) % relative inhibition=positive−negative−sample−negative/positive−negative×100

[2] = tested on: H1975 lung cancer cells expressing L858R/T790M EGFR; assay: MTT cytotoxicity assay on H1975 cells; format: cell-based, Human; details: read-out: IC50, cytotoxic effect on H1975 cell viability
Protocol: Both cells were maintained to grow at 37 °C in a humidified 5% CO2 atmosphere.
The studied cell lines were seeded into 96-well plates (cell density of 6000 cells/well) and were incubated overnight. […] After incubation, the effect of compounds on cell viability was measured using the MTT assay as follows: 10 μL of MTT solution (5 mg/mL) was added and then incubated for 3 h. The medium was removed, followed by adding 50 μL of DMSO to dissolve the crystal formazan product. The purple solution of crystal formazan was then measured at 570 nm using a microplate spectrophotometer (Infinite M200 microplate reader, Tecan, Männedorf, Switzerland). The complete medium with 1.0% DMSO (no inhibitor) was used as a control in accordance with the reaction containing 1.0% DMSO of all wells.

[3] = MTT cytotoxicity assay on Vero cells; details: monkey, Vero cells (normal kidney epithelial cell line), IC50, cytotoxic effect on Vero cell viability
Protocol: (§1) Human NSCLC cell lines, H1975 (ATCC CRL-5908) and monkey’s normal kidney epithelial cell line (Vero, ATCC CCL-81) were purchased from American Type Culture Collection (ATCC, Manassas, VA, USA). H1975 cells were grown in RPMI-1640 medium supplemented with 10% FBS, 100 U/mL penicillin, and 100 µg/mL streptomycin. Vero cells were grown in Dulbecco’s modified Eagle’s minimal essential medium (DMEM; Gibco, Grand Island, NY, USA) containing 10% fetal bovine serum (FBS; Gibco), 100 U/mL penicillin, and 100 µg/mL streptomycin (Gibco). Both cells were maintained to grow at 37 °C in a humidified 5% CO2 atmosphere.
(§2) The studied cell lines were seeded into 96-well plates (cell density of 6000 cells/well) and were incubated overnight. Then, cells were treated with screened compounds and the known drug with various concentrations (125, 62.5, 31.25, 15.63, 7.81, 3.91, 1.95, and 0.98 μM) for 72 h. After incubation, the effect of compounds on cell viability was measured using the MTT assay as follows: 10 μL of MTT solution (5 mg/mL) was added and then incubated for 3 h. The medium was removed, followed by adding 50 μL of DMSO to dissolve the crystal formazan product. The purple solution of crystal formazan was then measured at 570 nm using a microplate spectrophotometer (Infinite M200 microplate reader, Tecan, Männedorf, Switzerland). The complete medium with 1.0% DMSO (no inhibitor) was used as a control in accordance with the reaction containing 1.0% DMSO of all wells.

Vero normal kidney cells = assay: MTT cytotoxicity assay on Vero cells; details: read-out: IC50, cytotoxic effect on Vero cell viability, 72 h
Protocol: as §1, §2

in vitro = details: monkey, IC50, cytotoxic effect on Vero cell viability
Protocol: as §1, §2

[4] = enzyme-based assay, mean ± SEM, triplicate, read-out: IC50, kinase inhibitory activity against EGFR (L858R/T790M/C797S)
[5] = Homo sapiens, NCI-H1975, MTT, 72 h

EGFR (L858R/T790M/C797S) TK, sequence (P00533 25-1210 T790M/C797S/L858R): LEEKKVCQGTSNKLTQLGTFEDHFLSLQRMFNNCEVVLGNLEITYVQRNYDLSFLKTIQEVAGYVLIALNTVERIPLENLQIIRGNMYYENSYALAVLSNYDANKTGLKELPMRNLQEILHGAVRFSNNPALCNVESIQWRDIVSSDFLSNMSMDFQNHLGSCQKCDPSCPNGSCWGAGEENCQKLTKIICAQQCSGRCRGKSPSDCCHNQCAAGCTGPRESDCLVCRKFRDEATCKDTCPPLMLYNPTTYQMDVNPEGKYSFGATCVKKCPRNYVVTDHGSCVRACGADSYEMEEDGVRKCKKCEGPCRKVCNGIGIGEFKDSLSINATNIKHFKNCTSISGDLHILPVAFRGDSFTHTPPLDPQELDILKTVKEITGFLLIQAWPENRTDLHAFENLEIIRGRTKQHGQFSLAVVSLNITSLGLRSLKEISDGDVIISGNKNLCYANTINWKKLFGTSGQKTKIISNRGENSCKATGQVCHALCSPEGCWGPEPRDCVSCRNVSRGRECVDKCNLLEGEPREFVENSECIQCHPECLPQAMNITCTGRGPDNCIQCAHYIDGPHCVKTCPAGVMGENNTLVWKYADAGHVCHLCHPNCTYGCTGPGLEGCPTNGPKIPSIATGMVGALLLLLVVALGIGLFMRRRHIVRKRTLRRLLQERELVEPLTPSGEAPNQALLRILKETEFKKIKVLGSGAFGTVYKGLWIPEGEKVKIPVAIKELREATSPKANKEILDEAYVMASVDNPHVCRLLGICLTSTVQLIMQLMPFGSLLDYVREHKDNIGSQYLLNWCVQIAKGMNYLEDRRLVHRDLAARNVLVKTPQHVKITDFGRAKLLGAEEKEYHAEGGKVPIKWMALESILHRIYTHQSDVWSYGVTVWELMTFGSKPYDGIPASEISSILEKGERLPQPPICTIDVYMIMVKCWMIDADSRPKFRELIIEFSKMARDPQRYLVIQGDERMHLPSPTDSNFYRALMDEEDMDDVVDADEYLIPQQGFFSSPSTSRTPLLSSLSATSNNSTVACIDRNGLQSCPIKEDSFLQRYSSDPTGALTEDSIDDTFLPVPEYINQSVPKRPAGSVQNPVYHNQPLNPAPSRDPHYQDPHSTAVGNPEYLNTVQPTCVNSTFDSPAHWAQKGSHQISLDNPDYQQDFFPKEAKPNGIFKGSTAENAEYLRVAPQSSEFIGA

Compound	IC50 [1, 4] [µM]	IC50 [2, 5] [µM]	IC50 at 72 h [3] [µM]	IC50 [1] [µM]	IC50 ([2]; MTT, 72 h) [µM]	IC50 (Vero normal kidney cells) [µM]	IC50 ([2]; Homo sapiens, NCI-H1975, 72 h) [µM]	IC50 at 72 h (in vitro) [µM]
CCn1c(=O)c(-n2cnc3ccccc32)nc2ccccc21 [CPD15]	–	–	> 100	0.0065 ± 0.00302	31.2 ± 3.4	> 50	–	–
C=CC(=O)Nc1cc(Nc2nccc(-c3cn(C)c4ccccc34)n2)c(OC)cc1N(C)CCN(C)C [Osimertinib, reference compound]	–	–	–	–	–	–	18.3 ± 2.02	> 100

Second part, led by results:

IC50 [1, 4] [µM]	Compound	IC50 [2, 5] [µM]	IC50 at 72 h [3] [µM]	IC50 [1] [µM]	IC50 ([2]; MTT, 72 h) [µM]	IC50 (Vero normal kidney cells) [µM]	IC50 ([2]; Homo sapiens, NCI-H1975, 72 h) [µM]	IC50 at 72 h (in vitro) [µM]
0.00304 ± 0.00124	O=c1c(-n2cncn2)nc2ccccc2n1Cc1ccccc1 [CPD4]	3.47 ± 2.2	> 20	–	–	–	–	–
0.0105 ± 0.0011	O=c1[nH]c2ccccc2nc1OCc1ccccc1 [CPD16]	79.4 ± 4.35	> 100	–	–	–	–	–
0.00381 ± 0.0018	CCOc1nc2ccccc2n(Cc2ccccc2)c1=O [CPD21, 1-Benzyl-3-ethoxyquinoxalin-2(1H)-one]	44.7 ± 2.34	> 100	–	–	–	–	–

From PMC9788584, “Quinoxalinones as A Novel Inhibitor Scaffold for EGFR (L858R/T790M/C797S) Tyrosine Kinase: Molecular Docking, Biological Evaluations, and Computational Insights” (Molecules, 2022)
